Target: T1, NA transporter (Rattus norvegicus, UniProt Q9WTR4)
T1 construct: synaptosomes from rat brain regions were freshly isolated; from tissue; host or cells: P2 synaptosome fraction from hypothalamus of male rat brain
Test: Noradrenalin uptake inhibition (NA-uptake) in synaptosomes
Type: biochemical
Details: rat hypothalamus synaptosomes
Description: Tests on Noradrenalin Uptake Inhibition (NA-Uptake Inhibition)
In order to be able to carry out these in vitro studies, synaptosomes from rat brain regions were freshly isolated.

T1 sequence (Q9WTR4 1-597): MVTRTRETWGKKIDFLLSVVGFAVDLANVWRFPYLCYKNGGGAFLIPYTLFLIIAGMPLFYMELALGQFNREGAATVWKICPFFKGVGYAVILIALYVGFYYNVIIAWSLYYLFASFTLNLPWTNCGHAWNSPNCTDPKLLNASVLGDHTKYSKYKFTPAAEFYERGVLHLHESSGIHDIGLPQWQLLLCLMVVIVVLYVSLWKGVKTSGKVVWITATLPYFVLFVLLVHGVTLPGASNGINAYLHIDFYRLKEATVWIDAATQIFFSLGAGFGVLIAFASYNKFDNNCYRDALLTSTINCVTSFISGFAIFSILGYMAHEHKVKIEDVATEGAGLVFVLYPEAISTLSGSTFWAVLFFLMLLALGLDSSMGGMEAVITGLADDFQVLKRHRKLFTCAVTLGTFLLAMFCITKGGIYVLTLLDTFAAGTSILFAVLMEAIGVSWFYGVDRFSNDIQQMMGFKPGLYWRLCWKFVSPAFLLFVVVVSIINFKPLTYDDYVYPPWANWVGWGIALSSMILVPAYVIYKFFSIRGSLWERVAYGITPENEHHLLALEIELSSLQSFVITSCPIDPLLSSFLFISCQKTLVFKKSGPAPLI

Going from `COc1ccc(S(=O)(=O)N2CCC3(CC2)CC(C(=O)NC2CCCC2OCc2ccccc2)=NO3)cc1` (stereo not shown) [Example 169, 8-(4-methoxy-benzenesulphonyl)-1-oxa-2,8-diaza-spiro[4,5]dec-2-ene-3-carboxylic acid (2-benzyloxy-cyclopentyl)-amide] to `O=C(NC1CCCC1OCc1ccccc1)C1=NOC2(CCN(S(=O)(=O)c3cccc(C(F)(F)F)c3)CC2)C1` (stereo not shown) [Example 201, 8-(3-trifluoromethyl-benzenesulphonyl)-1-oxa-2,8-diaza-spiro[4,5]dec-2-ene-3-carboxylic acid (2-benzyloxy-cyclopentyl)-amide], the inhibition at 10 µM falls from 64% to 58%.

Compared with `O=C(NCC1COc2ccccc2O1)C1=NOC2(CCN(S(=O)(=O)c3ccc(Cl)s3)CC2)C1` (stereo not shown) [Example 194, 8-(5-chloro-thiophene-2-sulphonyl)-1-oxa-2,8-diaza-spiro[4,5]dec-2-ene-3-carboxylic acid (2,3-dihydro-benzo[1,4]dioxin-2-ylmethyl)-amide], `Cc1ccc(C(C)NC(=O)C2=NOC3(CCN(S(=O)(=O)c4cccs4)CC3)C2)cc1` (stereo not shown) [Example 23, 8-(thiophene-2-sulphonyl)-1-oxa-2,8-diaza-spiro[4,5]dec-2-ene-3-carboxylic acid (1-p-tolyl-ethyl)-amide] is lower in inhibition at 10 µM: 65% for the first, 49% for the second.

First: O=C(NCc1cccs1)C1=NOC2(CCN(C(=O)c3ccc(SC(F)(F)F)cc3)CC2)C1 [Example 135, 8-(4-trifluoromethylsulphanyl-benzoyl)-1-oxa-2,8-diaza-spiro[4,5]dec-2-ene-3-carboxylic acid (thiophen-2-ylmethyl)-amide]
Second: O=C(NCc1cccs1)C1=NOC2(CCN(C(=O)c3cccc(Cl)c3F)CC2)C1 [Example 146, 8-(3-chloro-2-fluorobenzoyl)-1-oxa-2,8-diaza-spiro[4,5]dec-2-ene-3-carboxylic acid (thiophen-2-ylmethyl)-amide]
The inhibition at 10 µM of the first is lower: 56% for the first, 61% for the second.

Going from `CC(Oc1ccccc1)C(=O)N1CCC2(CC1)CC(C(=O)NCc1ccccc1)=NO2` (stereo not shown) [Example 149, 8-(2-phenoxy-propionyl)-1-oxa-2,8-diaza-spiro[4,5]dec-2-ene-3-carboxylic acid benzylamide] to `O=C(NCc1ccccc1)C1=NOC2(CCN(C(=O)c3cccc(SC(F)F)c3)CC2)C1` [Example 180, 8-(3-difluoromethylsulphanyl-benzoyl)-1-oxa-2,8-diaza-spiro[4,5]dec-2-ene-3-carboxylic acid benzylamide], the inhibition at 10 µM rises from 50% to 61%.

Compared with `CCSc1ncccc1C(=O)N1CCC2(CC1)CC(C(=O)NCc1ccccc1)=NO2` [Example 115, 8-(2-ethylsulphanyl-pyridine-3-carbonyl)-1-oxa-2,8-diaza-spiro[4,5]dec-2-ene-3-carboxylic acid benzylamide], `O=C(NCC1CC1)C1=NOC2(CCN(C(=O)c3ccc(OC(F)(F)F)cc3)CC2)C1` [Example 117, 8-(4-trifluoromethoxy-benzoyl)-1-oxa-2,8-diaza-spiro[4,5]dec-2-ene-3-carboxylic acid cyclopropylmethyl-amide] is lower in inhibition at 10 µM: 55% for the first, 46% for the second.

Going from `O=C(NCCCn1ccnc1)C1=NOC2(CCN(S(=O)(=O)c3ccc(F)cc3)CC2)C1` [Example 142, 8-(4-fluoro-benzenesulphonyl)-1-oxa-2,8-diaza-spiro[4,5]dec-2-ene-3-carboxylic acid (3-imidazol-1-yl-propyl)-amide] to `O=C(C1=NOC2(CCN(S(=O)(=O)c3cc(Cl)ccc3Cl)CC2)C1)N(CCc1ccccc1)Cc1ccccc1` [Example 98, 8-(2,5-dichloro-benzenesulphonyl)-1-oxa-2,8-diaza-spiro[4,5]dec-2-ene-3-carboxylic acid benzyl-phenethyl-amide], the inhibition at 10 µM rises from 49% to 82%.

For `O=C(C1=NOC2(CCN(S(=O)(=O)c3ccc(OC(F)(F)F)cc3)CC2)C1)N1CCN(CCCc2ccccc2)CC1` [Example 176, [4-(3-phenyl-propyl)-piperazin-l-yl]-[8-(4-trifluoromethoxy-benzenesulphonyl)-1-oxa-2,8-diaza-spiro [4,5]dec-2-en-3-yl]-methanone], the “NA-uptake, 10 μM, % inhibition” value was 52%.

Source: patent publication US8557796B2, “Substituted 1-oxa-2,8-diaza-spiro [4,5] dec-2-ene derivatives and related treatment methods” (Gruenenthal GmbH, priority 2001, dated 2013)
